According to patent publication US20210393735A1, “PHARMACEUTICAL COMPOSITION COMPRISING TEICOPLANIN” (GALENUS G.H. AG, priority 2018, published 2021):

Experiments:
[1] = Phase-1 open cross-over cohort study in healthy subjects: conventional vs novel teicoplanin dosage regimen (pharmacokinetics, tolerability); format: in vivo, human (healthy subjects)
Procedure: Teicoplanin: Conventional Dosage Regimen as Compared to the Novel Dosage Regimen
Phase-1 Study in Healthy Subjects
The study is performed as an open, cross over cohort-study after having received ethical approval and written consent by the participating 6 healthy subjects (3 males and 3 females). The principle study design of Outman et al (1990 [4]) is used with the following modification: 6 loading doses are followed by the maintenance dosing phase up to a total of 6 days.
In the first cross over comparative study, the following two dosage regimens are used:
Regimen A1: 6 loading dosages of 400 mg twice daily (bid) followed by 3 dosages of 400 mg once daily (total 6 days): total dosage 3600 mg
Regimen B1: first loading dose 800 mg followed by 4 dosages 400 mg bid, followed by 6 dosages 200 mg bid (total 6 days): total dosage 3600 mg.
In the second cross over comparative study, the following two dosage regimens are used:
Regimen A2: 6 loading dosages of 800 mg bid followed by 3 dosages of 800 mg once daily (total 6 days): total dosage 7200 mg
Regimen B2: 6 loading dosages of 800 mg bid followed by 6 dosages 400 mg bid (total 6 days): total dosage 7200 mg.

[2] = tested on: Gram-positive bacteria such as staphylococci (including methicillin-resistant strains), streptococci, enterococci and many anaerobic Gram-positive bacteria; conditions: Campoli-Richards et al. 1990 [2]; cited from earlier work
[3] = tested on: clinical isolates of Clostridium difficile; conditions: isolates from patients with hospital or community acquired CDI; Jamal, Rotimi 2016 [3]; cited from earlier work
[4] = in vivo; cited from earlier work
[5] = overall, no significant difference between regimens A and B in both studies

## teicoplanin
[1]; 1st and 2nd study
  phlebitis or renal, hepatic, or ototoxicity: no evidence
[1]; 1st and 2nd study, both dosing regimens
  tolerability: generally well tolerated
[1]; 1st study, 1st day, regimen A1 (6 x 400 mg bid, then 3 x 400 mg once daily)
  trough levels: 8 to 15 mg/L
[1]; 1st study, 1st day, regimen B1 (800 mg, then 4 x 400 mg bid, then 6 x 200 mg bid)
  trough levels: 18 to 25 mg/L
[1]; 1st study, day 4 to 6, regimen A1
  trough levels: 10 to 18 mg/L
[1]; 1st study, day 4 to 6, regimen B1
  trough levels: 20 to 30 mg/L
[1]; 2nd study, 1st day, regimen A2 (6 x 800 mg bid, then 3 x 800 mg once daily)
  trough levels: 14 to 24 mg/L
[1]; 2nd study, 1st day, regimen B2 (6 x 800 mg bid, then 6 x 400 mg bid)
  trough levels: 25 to 34 mg/L
[1]; 2nd study, day 4 to 6, regimen A2
  trough levels: 18 to 26 mg/L
[1]; 2nd study, day 4 to 6, regimen B2
  trough levels: 30 to 38 mg/L
[1]; at the 1st day (first study only) and from day 4 on
  higher trough levels with novel vs conventional dosage regimen: about 50%
[1]; during infusion of some, but not all, doses, 6 healthy subjects
  lightheadedness during the infusion: Two subjects experience transient lightheadedness
[1]; [5]
  renal clearance: 0.19 ± 0.015 mL/min/kg
  t1/2: 157+93 h
  total clearance: 0.21 ± 0.018 mL/min/kg
[2]
  susceptibility in vitro: susceptible
[3]
  activity against clinical isolates: active
[4]
  terminal half-life, mean (±SD): 157 (±93) hours (h)
  terminal half-life, median (range): 168 (111-278) h
